Laboratory results as given in patent publication US20060045864A1, “Preventing marine biofouling by inhibiting adhesive release from barnacles” (priority 2004, published 2006).

Tests used:
barnacle cypris larvae = assay: settling and metamorphosis of barnacle cypris larvae in Petri dish with filtered seawater; assay type: in vivo, Balanus improvisus; conditions: 20 cypris larvae in 5 ml filtered seawater; for inhibition of settling rate of barnacle cypris larvae, compared between substances and control: 1 μM and 10 μM, accumulative settling frequency over 10 days (FIG. 1)
Experimental: (§1) All the below described experiments are on the species Balanus improvisus.
In a Petri dish containing 5 ml of filtered seawater, 20 cypris larvae and a defined concentration of the different pharmacological agents. […] 20 barnacle cypris larvae were added into a Petri dish containing 5 ml filtered seawater and different concentration of haloperidole and SCH 23990. […] Instead 1 μM of SCH 23390 inhibits the settling rate almost completely. Typically, 0.01-1.0% of the dopamine antagonist effects the desired result, typically dissolved in ethanol and mixed with commercially available paints, such as VC 17 New Technology (solid paint) International Coatings (Akzo Nobel bv, Arnhem, NL), SPF (Self polishing, SPC) (Loutrec AB, Lidingo, Sweden), TF (combined solid/ablative) (Loutrec AB), Fabi Eco (ablative paint) International Coatings (Akzo Nobel bv).

[1] = test system: release of barnacle adhesive; assay: release of barnacle adhesive; set-up: species or system Balanus improvisus; conditions: in vivo
Description: as §1
The release of the adhesive is governed by a G-protein coupled receptor and it is possible to stimulate release of the adhesive glands by adding dopamine. According to the same principle, it is possible to block the release of the adhesive proteins by using a dopamine antagonist that block the action of dopamine. […] The invention herein includes use of SCH23390, and salts and derivatives thereof, as well as other D1 or D5 receptor antagonists such as […], SCH 39166, SCH 233388 and the like or antagonists against other receptors with the same function.

Row | SMILES | inhibition of settling rate of barnacle cypris larvae, compared between substances and control (barnacle cypris larvae) | effect on settlement rate of barnacle cypris larvae (barnacle cypris larvae; 1 μM, accumulative settling over 10 days (FIG. 1)) | inhibition of the release of barnacle adhesive [1]
1 | CN1CCc2cc(Cl)c(O)cc2[C@@H](c2ccccc2)C1 [SCH 23390, (R)-(+)-7-Chloro-8-hydroxy-3-methyl-1-phenyl-2,3,4,5-tetrahydro-1H-3-benzazepine] | effectively inhibits the settling rate | almost complete reducing effect | can inhibit the release of barnacle adhesive
2 | O=C(CCCN1CCC(O)(c2ccc(Cl)cc2)CC1)c1ccc(F)cc1 [haloperidol] | less effective |  | 
